Literature values in publication PMC4937428, “The Next Generation Non-competitive Active Polyester Nanosystems for Transferrin Receptor-mediated Peroral Transport Utilizing Gambogic Acid as a Ligand” (Scientific Reports, 2016).

Set-up: method as in PMID 16918721
Conditions: described in the literature

CC(C)=CCC[C@]1(C)C=Cc2c(O)c3c(c(CC=C(C)C)c2O1)O[C@]12C(=C[C@@H]4C[C@H]1C(C)(C)O[C@@]2(C/C=C(/C)C(=O)O)C4=O)C3=O [GA, gambogic acid]
Established safe dose: 60 mg/kg
